# Laboratory results reported in ChEMBL document CHEMBL1126451, “Characterization of LY806303 as a potent and selective inhibitor of thrombin” (Bioorg Med Chem Lett, 1992).
# Non-standard residues stand in square brackets, D forms with d. Residues, ends and D or L forms follow the SMILES beside them. dNMePhg = CN[C@@H](C(=O)O)c1ccccc1; NMePhg = CN[C@H](C(=O)O)c1ccccc1
# Legend:
# [1] = molecular target: T1, Plasma kallikrein (Homo sapiens, UniProt P03952); assay: In vitro concentration of compound required to inhibit 50% of Kallikrein
# [2] = In vitro concentration of compound required to inhibit 50% of nt-PA; parameters: species or system Homo sapiens
# [3] = molecular target: T2, Coagulation factor X (Bos taurus, UniProt P00743); assay: In vitro concentration of compound required to inhibit 50% of Factor Xa
# [4] = molecular target: T3, Plasminogen (Homo sapiens, UniProt P00747); assay: In vitro concentration of compound required to inhibit 50% of Plasmin
# [5] = molecular target: T4, Serine protease 1 (Bos taurus, UniProt P00760); assay: In vitro concentration of compound required to inhibit 50% of trypsin
# T4 sequence (P00760 whole entry): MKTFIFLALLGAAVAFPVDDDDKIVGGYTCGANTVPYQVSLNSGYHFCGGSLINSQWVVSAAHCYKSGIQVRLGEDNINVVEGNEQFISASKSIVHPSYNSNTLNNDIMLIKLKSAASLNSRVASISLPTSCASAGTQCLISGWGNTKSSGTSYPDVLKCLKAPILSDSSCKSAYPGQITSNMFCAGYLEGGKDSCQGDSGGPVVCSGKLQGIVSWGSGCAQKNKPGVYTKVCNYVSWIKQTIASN
# [6] = molecular target: Prothrombin (Bos taurus, UniProt P00735)
# Description: In vitro concentration of compound required to inhibit 50% of 6 nM thrombin
# [7] = molecular target: T2, Coagulation factor X; assay: In vitro concentration of compound required to inhibit 50% of factor Xa
# [8] = molecular target: T3, Plasminogen; assay: In vitro concentration of compound required to inhibit 50% of plasmin
# [9] = molecular target: T1, Plasma kallikrein; assay: In vitro concentration of compound required to inhibit 50% of kallikrein
# T3 sequence (P00747 97-580 limits assumed): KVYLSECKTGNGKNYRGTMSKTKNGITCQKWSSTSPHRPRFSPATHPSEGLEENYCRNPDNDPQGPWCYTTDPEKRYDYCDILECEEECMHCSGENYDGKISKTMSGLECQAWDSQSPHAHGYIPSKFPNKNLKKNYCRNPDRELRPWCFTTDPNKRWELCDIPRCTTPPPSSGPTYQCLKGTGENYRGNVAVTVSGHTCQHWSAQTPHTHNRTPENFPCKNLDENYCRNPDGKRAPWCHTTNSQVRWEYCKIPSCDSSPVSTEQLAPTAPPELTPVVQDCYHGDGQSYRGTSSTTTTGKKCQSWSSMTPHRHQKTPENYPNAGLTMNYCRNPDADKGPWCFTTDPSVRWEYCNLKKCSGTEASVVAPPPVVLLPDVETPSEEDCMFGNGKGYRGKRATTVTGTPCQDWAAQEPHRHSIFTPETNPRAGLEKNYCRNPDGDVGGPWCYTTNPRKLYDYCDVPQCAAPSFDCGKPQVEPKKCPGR
# T3 sequence (P00747 581-810 limits assumed): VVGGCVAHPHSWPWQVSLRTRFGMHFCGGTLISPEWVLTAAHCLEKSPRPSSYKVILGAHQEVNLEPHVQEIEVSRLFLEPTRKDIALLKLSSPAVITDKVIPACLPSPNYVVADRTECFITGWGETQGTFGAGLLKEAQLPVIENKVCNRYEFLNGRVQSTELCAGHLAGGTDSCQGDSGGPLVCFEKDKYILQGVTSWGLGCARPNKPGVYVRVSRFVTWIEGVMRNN
# T2 sequence (P00743 41-180 limits assumed): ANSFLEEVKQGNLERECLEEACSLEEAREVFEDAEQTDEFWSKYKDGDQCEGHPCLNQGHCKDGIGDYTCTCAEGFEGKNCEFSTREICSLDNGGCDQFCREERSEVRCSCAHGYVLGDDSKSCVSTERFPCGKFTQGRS
# T2 sequence (P00743 234-492 limits assumed): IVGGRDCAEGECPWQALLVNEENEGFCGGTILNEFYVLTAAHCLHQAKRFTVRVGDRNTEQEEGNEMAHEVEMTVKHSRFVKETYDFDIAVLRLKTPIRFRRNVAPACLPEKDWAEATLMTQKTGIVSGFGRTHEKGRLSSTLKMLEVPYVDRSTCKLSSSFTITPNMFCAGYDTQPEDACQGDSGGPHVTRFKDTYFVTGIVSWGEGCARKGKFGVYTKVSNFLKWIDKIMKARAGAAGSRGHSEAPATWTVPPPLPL
# T1 sequence (P03952 20-390 limits assumed): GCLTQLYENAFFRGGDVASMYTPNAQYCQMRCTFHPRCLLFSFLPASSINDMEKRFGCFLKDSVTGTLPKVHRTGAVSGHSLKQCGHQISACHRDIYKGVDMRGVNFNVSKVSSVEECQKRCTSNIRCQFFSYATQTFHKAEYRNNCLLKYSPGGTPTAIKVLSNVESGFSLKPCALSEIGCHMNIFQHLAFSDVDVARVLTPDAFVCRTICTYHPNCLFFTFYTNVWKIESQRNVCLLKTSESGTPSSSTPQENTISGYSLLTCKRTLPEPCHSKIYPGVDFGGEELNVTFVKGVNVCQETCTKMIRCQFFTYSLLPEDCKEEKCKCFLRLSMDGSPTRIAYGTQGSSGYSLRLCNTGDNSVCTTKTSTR
# T1 sequence (P03952 391-638 limits assumed): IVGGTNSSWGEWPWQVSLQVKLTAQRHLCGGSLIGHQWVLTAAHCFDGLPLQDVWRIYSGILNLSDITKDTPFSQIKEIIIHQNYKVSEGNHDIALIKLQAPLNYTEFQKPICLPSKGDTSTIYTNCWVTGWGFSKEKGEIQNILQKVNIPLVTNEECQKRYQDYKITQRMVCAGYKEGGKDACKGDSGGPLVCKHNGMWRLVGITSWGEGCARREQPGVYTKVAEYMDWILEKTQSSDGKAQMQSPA
Compound,IC50 [2],IC50 [5],IC50 [6],also measured
COC(=O)c1oc2c(sc3ccccc32)c1OC(=O)C(C)C,160 µM,29 µM,,IC50 [1]: 7.2 µM; IC50 [3]: 0.1 µM; IC50 [4]: 240 µM
COC(=O)c1oc2c(sc3ccccc32)c1OC(=O)N(C)C,,,> 10 µM,
COC(=O)c1oc2c(sc3ccccc32)c1O,,,> 10 µM,
COC(=O)c1oc2c(sc3ccccc32)c1OC,,,> 10 µM,
CN[C@H](C(=O)N1CCC[C@H]1C(=O)N[C@@H](CCCNC(=N)N)C(=O)O)c1ccccc1 (H-[NMePhg]-Pro-Arg-OH),,,0.02 µM,
CN[C@@H](C(=O)N1CCC[C@H]1C(=O)N[C@H](C=O)CCCNC(=N)N)c1ccccc1 (H-[dNMePhg]-Pro-Arg-aldehyde),43 µM,0.02 µM,,IC50 [7]: 2.2 µM; IC50 [8]: 0.5 µM; IC50 [9]: 12 µM
